Data reported in patent publication US8871738B2, “Fused bicyclic oxazolidinone CETP inhibitor” (Merck Sharp & Dohme Corp., priority 2011, dated 2014).
Where two headings read alike, the source gives them in different places.

Molecular target: endogenous CETP from serum (Homo sapiens (Human), UniProt P11597)
Experiment: RTA assay in 95% human serum (CETP-catalyzed CE and TG transfer, endogenous CETP)
Assay type: biochemical
[1] = RTA assay in 95% human serum, read-out: IC50
[2] = RTA assay, 95% human serum, read-out: RTA (95% HS)

endogenous CETP from serum, sequence (P11597 18-493 limits assumed): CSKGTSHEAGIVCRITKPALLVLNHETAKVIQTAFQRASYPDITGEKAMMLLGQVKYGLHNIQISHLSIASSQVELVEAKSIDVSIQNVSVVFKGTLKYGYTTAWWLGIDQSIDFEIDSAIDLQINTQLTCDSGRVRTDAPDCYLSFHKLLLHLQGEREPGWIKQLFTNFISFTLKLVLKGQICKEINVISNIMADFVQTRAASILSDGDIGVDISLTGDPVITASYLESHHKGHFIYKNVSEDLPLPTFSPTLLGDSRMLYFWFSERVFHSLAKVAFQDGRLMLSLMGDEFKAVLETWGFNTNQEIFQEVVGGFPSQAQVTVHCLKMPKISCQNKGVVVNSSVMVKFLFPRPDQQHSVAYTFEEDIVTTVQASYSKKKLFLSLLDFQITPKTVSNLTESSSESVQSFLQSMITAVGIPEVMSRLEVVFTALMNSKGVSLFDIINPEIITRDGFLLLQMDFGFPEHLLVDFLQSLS

Compound	IC50 [1] [nM]	IC50 [2] [nM]
Cc1cc(C(=O)O)ccc1-c1cnc(C)c(-c2ccc(C(F)(F)F)cc2[C@@H]2CC[C@H]3[C@@H](c4cc(C(F)(F)F)cc(C(F)(F)F)c4)OC(=O)N23)c1 [Example 66, 4-{5-[2-{(1R,5S,7aS)-1-[3,5-bis(trifluoromethyl)phenyl]-3-oxotetrahydro-1H-pyrrolo[1,2-c][1,3]oxazol-5-yl}-4-(trifluoromethyl)phenyl]-6-methylpyridin-3-yl}-3-methylbenzoic acid]	1290	
Cc1ccc(Cl)cc1-c1ccc(C(F)(F)F)cc1[C@@H]1CC[C@H]2[C@@H](c3cc(C(F)(F)F)cc(C(F)(F)F)c3)OC(=O)N12 [Example 26, (1R,5S,7aS)-1-[3,5-bis(trifluoromethyl)phenyl]-5-[5′-chloro-2′-methyl-4-(trifluoromethyl)biphenyl-2-yl]tetrahydro-1H-pyrrolo[1,2-c][1,3]oxazol-3-one]	1220	
COc1ccc([C@@H]2CC(=O)N[C@H]2C)cc1-c1ccc(C(F)(F)F)cc1[C@@H]1CC[C@H]2[C@@H](c3cc(C(F)(F)F)cc(C(F)(F)F)c3)OC(=O)N12 [Example 76, (1R,5S,7aS)-1-[3,5-bis(trifluoromethyl)phenyl]-5-{2′-methoxy-5′-[(2S,3S)-2-methyl-5-oxopyrrolidin-3-yl]-4-(trifluoromethyl)biphenyl-2-yl}tetrahydro-1H-pyrrolo[1,2-c][1,3]oxazol-3-one]	466	
COc1cc(F)c(-c2ccc(C(=O)O)cc2C)cc1-c1ccc(C(F)(F)F)cc1[C@@H]1CC[C@H]2[C@@H](c3cc(C)cc(C(F)(F)F)c3)OC(=O)N12 [Example 29, 6′-fluoro-4′-methoxy-2-methyl-2″- {(1R,5S,7aS)-1-[3-methyl-5-(trifluoromethyl)phenyl]-3-oxotetrahydro-1H-pyrrolo[1,2-c][1,3]oxazol-5-yl}-4″- (trifluoromethyl)-1,1′:3′,1″- terphenyl-4-carboxylic acid]	44.6	
COc1ccc([C@@H]2C[C@@H](O)[C@@H](O)C2)cc1-c1ccc(C(F)(F)F)cc1[C@@H]1CC[C@H]2[C@@H](c3cc(C(F)(F)F)cc(C(F)(F)F)c3)OC(=O)N12 [Example 58, (1R,5S,7aS)-1-[3,5-bis(trifluoromethyl)phenyl]-5-{5′-[(1s,3R,4S)-3,4-dihydroxycyclopentyl]-2′-methoxy-4-(trifluoromethyl)biphenyl-2-yl}tetrahydro-1H-pyrrolo[1,2-c][1,3]oxazol-3-one]	418	
O=C1O[C@H](c2cc(C(F)(F)F)cc(C(F)(F)F)c2)[C@@H]2CC[C@@H](c3cc(C(F)(F)F)ccc3-c3ccccc3Cl)N12 [Example 15, (1R,5S,7aS)-1-[3,5-bis(trifluoromethyl)phenyl]-5-[2′-chloro-4-(trifluoromethyl)biphenyl-2-yl]tetrahydro-1H-pyrrolo[1,2-c][1,3]oxazol-3-one]	453	
O=C1O[C@H](c2cc(C(F)(F)F)cc(C(F)(F)F)c2)[C@@H]2CC[C@@H](c3cc(C(F)(F)F)ccc3C3=CCCC3)N12 [Example 22, (1R,5S,7aS)-1-[3,5-bis(trifluoromethyl)phenyl]-5-[2-cyclopent-1-en-1-yl-5-(trifluoromethyl)phenyl]tetrahydro-1H-pyrrolo[1,2-c][1,3]oxazol-3-one]	56.6	
O=C1O[C@H](c2cc(C(F)(F)F)cc(C(F)(F)F)c2)[C@@H]2CC[C@@H](c3cc(C(F)(F)F)ccc3C3=CCCCC3)N12 [Example 17, (1R,5S,7aS)-1-[3,5-bis(trifluoromethyl)phenyl]-5-[2-cyclohex-1-en-1-yl-5-(trifluoromethyl)phenyl]tetrahydro-1H-pyrrolo[1,2-c][1,3]oxazol-3-one]	73.6	
COc1ccc(-c2ccc(C(=O)O)cc2C)cc1-c1ccc(F)cc1[C@@H]1CC[C@H]2[C@@H](c3cc(C(F)(F)F)cc(C(F)(F)F)c3)OC(=O)N12 [Example 34, 2″-{(1R,5S,7aS)-1-[3,5-bis(trifluoromethyl)phenyl]-3-oxotetrahydro-1H-pyrrolo[1,2-c][1,3]oxazol-5-yl}-4″-fluoro-4′-methoxy-2-methyl-1,1′:3′,1″- terphenyl-4-carboxylic acid]	229	
COc1cc(F)c(-c2ccc(C(=O)O)cc2C)cc1-c1cnc(C(F)(F)F)cc1[C@@H]1CC[C@H]2[C@@H](c3cc(C(F)(F)F)cc(C(F)(F)F)c3)OC(=O)N12 [Example 53, 5′-[4-{(1R,5S,7aS)-1-[3,5-bis(trifluoromethyl)phenyl]-3-oxotetrahydro-1H-pyrrolo[1,2-c][1,3]oxazol-5-yl}-6-(trifluoromethyl)pyridin-3-yl]-2′-fluoro-4′-methoxy-2-methylbiphenyl-4-carboxylic acid]	191	
N#Cc1cscc1-c1ccc(C(F)(F)F)cc1[C@@H]1CC[C@H]2[C@@H](c3cc(C(F)(F)F)cc(C(F)(F)F)c3)OC(=O)N12 [Example 12, 4-[2-{(1R,5S,7aS)-1-[3,5-bis(trifluoromethyl)phenyl]-3-oxotetrahydro-1H-pyrrolo[1,2-c][1,3]oxazol-5-yl}-4-(trifluoromethyl)phenyl]thiophene-3-carbonitrile]	266	
COc1ccc(F)cc1-c1ccc(C(F)(F)F)cc1[C@@H]1CC[C@H]2[C@@H](c3cc(C(F)(F)F)cc(C(F)(F)F)c3)OC(=O)N12 [Example 19, (1R,5S,7aS)-1-[3,5-bis(trifluoromethyl)phenyl]-5-[5′-fluoro-2′-methoxy-4-(trifluoromethyl)biphenyl-2-yl]tetrahydro-1H-pyrrolo[1,2-c][1,3]oxazol-3-one]	166	
COc1ncccc1-c1ccc(C(F)(F)F)cc1[C@@H]1CC[C@H]2[C@@H](c3cc(C(F)(F)F)cc(C(F)(F)F)c3)OC(=O)N12 [Example 21, (1R,5S,7aS)-1-[3,5-bis(trifluoromethyl)phenyl]-5-[2-(2-methoxypyridin-3-yl)-5-(trifluoromethyl)phenyl]tetrahydro-1H-pyrrolo[1,2-c][1,3]oxazol-3-one]	316	
COc1cc(F)c(C(C)C)cc1-c1ccc(C(F)(F)F)cc1[C@@H]1C=C[C@H]2[C@@H](c3cc(C(F)(F)F)cc(C(F)(F)F)c3)OC(=O)N12 [Example 51, (1R,5S,7aS)-1-[3,5-bis(trifluoromethyl)phenyl]-5-[4′-fluoro-2′-methoxy-5′-(1-methylethyl)-4-(trifluoromethyl)biphenyl-2-yl]-5,7a-dihydro-1H-pyrrolo[1,2-c][1,3]oxazol-3-one]	122	
COc1ccc(C2CCC(C(=O)O)CC2)cc1-c1ccc(C(F)(F)F)cc1[C@@H]1CC[C@H]2[C@@H](c3cc(C)cc(C(F)(F)F)c3)OC(=O)N12 (stereo partly drawn) [Example 52, 4-[6-methoxy-2′-{(1R,5S,7aS)-1-[3-methyl-5-(trifluoromethyl)phenyl]-3-oxotetrahydro-1H-pyrrolo[1,2-c][1,3]oxazol-5-yl}-4′-(trifluoromethyl)biphenyl-3-yl]cyclohexanecarboxylic acid]	260	
COc1ncc(C(F)(F)F)cc1-c1ccc(C(F)(F)F)cc1[C@@H]1CC[C@H]2[C@@H](c3cc(C(F)(F)F)cc(C(F)(F)F)c3)OC(=O)N12 [Example 10, (1R,5S,7aS)-1-[3,5-bis(trifluoromethyl)phenyl]-5-{2-[2-methoxy-5-(trifluoromethyl)pyridin-3-yl]-5-(trifluoromethyl)phenyl}tetrahydro-1H-pyrrolo[1,2-c][1,3]oxazol-3-one]	371	
COC(=O)CCc1ccc(OC)c(-c2ccc(C(F)(F)F)cc2[C@@H]2CC[C@H]3[C@@H](c4cc(C(F)(F)F)cc(C(F)(F)F)c4)OC(=O)N23)c1 [Example 1, Methyl 3-[2′-{(1R,5S,7aS)-1-[3,5-bis(trifluoromethyl)phenyl]-3-oxotetrahydro-1H-pyrrolo[1,2-c][1,3]oxazol-5-yl}-6-methoxy-4′-(trifluoromethyl)biphenyl-3-yl]propanoate]		296
COc1ncc(Cl)cc1-c1ccc(C(F)(F)F)cc1[C@@H]1CC[C@H]2[C@@H](c3cc(C(F)(F)F)cc(C(F)(F)F)c3)OC(=O)N12 [Example 11, (1R,5S,7aS)-1-[3,5-bis(trifluoromethyl)phenyl]-5-[2-(5-chloro-2-methoxypyridin-3-yl)-5-(trifluoromethyl)phenyl]tetrahydro-1H-pyrrolo[1,2-c][1,3]oxazol-3-one]	294	
COc1ccc(-c2ccc(C(=O)O)cc2C)cc1-c1ccc(N(C)C)nc1[C@@H]1C=C[C@H]2[C@@H](c3cc(C(F)(F)F)cc(C(F)(F)F)c3)OC(=O)N12 [Example 47, 3′-[2-{(1R,5S,7aS)-1-[3,5-bis(trifluoromethyl)phenyl]-3-oxo-5,7a-dihydro-1H-pyrrolo[1,2-c][1,3]oxazol-5-yl}-6-(dimethylamino)pyridin-3-yl]-4′-methoxy-2-methylbiphenyl-4-carboxylic acid]	491	
COC(=O)c1ccc(-c2cc(-c3ccc(C(F)(F)F)cc3[C@@H]3CC[C@H]4[C@@H](c5cc(C(F)(F)F)cc(C(F)(F)F)c5)OC(=O)N34)c(OC)cc2F)c(C)c1 [Example 6, methyl 2″-{(1R,5S,7aS)-1-[3,5-bis(trifluoromethyl)phenyl]-3-oxotetrahydro-1H-pyrrolo[1,2-c][1,3]oxazol-5-yl}-6′-fluoro-4′-methoxy-2-methyl-4″- (trifluoromethyl)-1,1′:3′,1″- terphenyl-4-carboxylate]	641	
COc1ccc([C@H]2[C@H](C)NC(=O)[C@@H]2C)cc1-c1ccc(C(F)(F)F)cc1[C@@H]1CC[C@H]2[C@@H](c3cc(C(F)(F)F)cc(C(F)(F)F)c3)OC(=O)N12 [Example 4, (1R,5S,7aS)-1-(3,5-bis(trifluoromethyl)phenyl)-5-(5′-((2S,3S,4R)-2,4-dimethyl-5-oxopyrrolidin-3-yl)-2′-methoxy-4-(trifluoromethyl)-[1,1′-biphenyl]-2-yl)tetrahydropyrrolo[1,2-c]oxazol-3(1H)one]		398
Cc1cscc1-c1ccc(C(F)(F)F)cc1[C@@H]1CC[C@H]2[C@@H](c3cc(C(F)(F)F)cc(C(F)(F)F)c3)OC(=O)N12 [Example 24, (1R,5S,7aS)-1-[3,5-bis(trifluoromethyl)phenyl]-5-[2-(4-methylthiophen-3-yl)-5-(trifluoromethyl)phenyl]tetrahydro-1H-pyrrolo[1,2-c][1,3]oxazol-3-one]	122	
